Read-outs that look alike come from different tables or passages of the source.
Tests used:
Type in all cases: biochemical
Wild Type HuAChE = Wild Type HuAChE (Homo sapiens, UniProt P22303); test: HuAChE inhibition kinetics
W86A/Y337A HuAChE = W86A/Y337A HuAChE (Homo sapiens, UniProt P22303, W117A/Y368A); test: biochemical
Y133A HuAChE = Y133A HuAChE (Homo sapiens, UniProt P22303, Y164A); test: HuAChE inhibition kinetics; conditions: read-out: Kd, Michaelis complex (Eq. 1); Y133A HuAChE; NI = No inhibition between […]10^−6- […]10^−4M
F297A HuAChE = F297A HuAChE (Homo sapiens, UniProt P22303, F328A); test: HuAChE inhibition kinetics
F295A/F297A HuAChE = F295A/F297A HuAChE (Homo sapiens, UniProt P22303, F326A/F328A); test: HuAChE inhibition kinetics
W86A HuAChE = W86A HuAChE (Homo sapiens, UniProt P22303, W117A); test: HuAChE inhibition kinetics
Y337A HuAChE = Y337A HuAChE (Homo sapiens, UniProt P22303, Y368A); test: HuAChE inhibition kinetics
F295A HuAChE = F295A HuAChE (Homo sapiens, UniProt P22303, F326A); test: HuAChE inhibition kinetics
F338A HuAChE = F338A HuAChE (Homo sapiens, UniProt P22303, F369A); test: HuAChE inhibition kinetics
HuBChE-Wild Type = HuBChE-Wild Type (Homo sapiens, UniProt P06276); test: HuBChE inhibition kinetics
Chain of HuBChE-Wild Type (P06276 29-602): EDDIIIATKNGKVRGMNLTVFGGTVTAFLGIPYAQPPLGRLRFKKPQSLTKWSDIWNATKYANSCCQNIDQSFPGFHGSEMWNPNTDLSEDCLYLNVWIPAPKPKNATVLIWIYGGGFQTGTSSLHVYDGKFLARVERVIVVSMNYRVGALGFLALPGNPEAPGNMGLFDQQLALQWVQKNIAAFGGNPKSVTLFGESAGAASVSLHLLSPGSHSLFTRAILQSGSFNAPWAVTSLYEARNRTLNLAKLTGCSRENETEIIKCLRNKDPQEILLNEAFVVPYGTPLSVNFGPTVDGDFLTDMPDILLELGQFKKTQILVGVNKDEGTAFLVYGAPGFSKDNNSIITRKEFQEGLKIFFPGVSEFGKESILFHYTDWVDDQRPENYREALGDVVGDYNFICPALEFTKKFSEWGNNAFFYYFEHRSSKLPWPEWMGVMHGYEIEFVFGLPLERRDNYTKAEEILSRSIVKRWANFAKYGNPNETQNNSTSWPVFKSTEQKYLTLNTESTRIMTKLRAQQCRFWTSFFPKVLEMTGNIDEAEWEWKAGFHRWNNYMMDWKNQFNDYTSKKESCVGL

Chain of Wild Type HuAChE (P22303 32-614): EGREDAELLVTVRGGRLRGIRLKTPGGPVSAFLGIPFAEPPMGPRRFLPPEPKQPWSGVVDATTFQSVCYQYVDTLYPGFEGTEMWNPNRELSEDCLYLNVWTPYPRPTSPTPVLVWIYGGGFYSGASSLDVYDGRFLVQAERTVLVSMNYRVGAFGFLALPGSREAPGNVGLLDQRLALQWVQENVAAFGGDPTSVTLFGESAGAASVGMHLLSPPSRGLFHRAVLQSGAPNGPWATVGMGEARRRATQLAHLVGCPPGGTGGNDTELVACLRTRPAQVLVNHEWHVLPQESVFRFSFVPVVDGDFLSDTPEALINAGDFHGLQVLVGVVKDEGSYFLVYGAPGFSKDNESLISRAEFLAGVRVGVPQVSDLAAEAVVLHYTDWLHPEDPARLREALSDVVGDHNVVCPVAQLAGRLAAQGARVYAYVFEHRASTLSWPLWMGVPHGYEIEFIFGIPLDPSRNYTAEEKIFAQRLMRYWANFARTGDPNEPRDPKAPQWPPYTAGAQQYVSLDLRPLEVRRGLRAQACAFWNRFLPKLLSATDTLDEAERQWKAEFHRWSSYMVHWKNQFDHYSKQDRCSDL
Chain of F338A HuAChE (P22303 32-614 F369A): as the sequence (P22303 32-614) above, with F338A counted along it
Chain of F295A/F297A HuAChE (P22303 32-614 F326A/F328A): as the sequence (P22303 32-614) above, with F295A, F297A counted along it
Chain of Y133A HuAChE (P22303 32-614 Y164A): as the sequence (P22303 32-614) above, with Y133A counted along it
Chain of W86A/Y337A HuAChE (P22303 32-614 W117A/Y368A): as the sequence (P22303 32-614) above, with W86A, Y337A counted along it
Chain of F297A HuAChE (P22303 32-614 F328A): as the sequence (P22303 32-614) above, with F297A counted along it
Chain of Y337A HuAChE (P22303 32-614 Y368A): as the sequence (P22303 32-614) above, with Y337A counted along it
Chain of F295A HuAChE (P22303 32-614 F326A): as the sequence (P22303 32-614) above, with F295A counted along it
Chain of W86A HuAChE (P22303 32-614 W117A): as the sequence (P22303 32-614) above, with W86A counted along it

## CNC(=O)Oc1ccc2c(c1)[C@]1(C)CCO[C@@H]1N2C [(−)-Physovenine, physovenine]
Wild Type HuAChE
  Kd: 430 ± 90 nM
W86A/Y337A HuAChE
  Kd: 413000 ± 85000 nM
Y133A HuAChE
  Kd: > 250000 nM
F297A HuAChE
  Kd: 630 ± 40 nM
F295A/F297A HuAChE; Kd, Michaelis complex (Eq. 1)
  Kd: 230 ± 70 nM
W86A HuAChE
  Kd: 120000 ± 24000 nM
Y337A HuAChE
  Kd: 850 ± 200 nM
F295A HuAChE
  Kd: 100 ± 27 nM
F338A HuAChE
  Kd: 2560 ± 600 nM

## CC(C)c1ccc(NC(=O)Oc2ccc3c(c2)[C@]2(C)CCN(C)[C@@H]2N3C)cc1 [(−)Cymserine, cymserine]
Wild Type HuAChE; HuAChE enzymes
  mode of inhibition: noncovalent inhibitor

## CCN(C)C(=O)Oc1cccc([C@H](C)N(C)C)c1 [Rivastigmine, rivastigmine]
HuBChE-Wild Type; HuBChE vs HuAChE
  k2 higher than for HuAChE: 9 fold
  reactivity toward HuBChE higher than toward HuAChE: 15 fold
HuBChE-Wild Type; HuBChE-Wild Type
  k2, carbamylation rate constant: 0.90 ± 0.03 min⁻¹

## physovenine [(+)-Physovenine]
Wild Type HuAChE; read-out: Kd, Michaelis complex (Eq. 1), Wild Type HuAChE
  Kd: 1400 ± 130 nM
W86A/Y337A HuAChE; read-out: Kd, Michaelis complex (Eq. 1), […], Table 3: Activity measured with TB
  Kd: 281000 ± 45000 nM
Y133A HuAChE
  Kd: > 250000 nM
F297A HuAChE; read-out: Kd, Michaelis complex (Eq. 1), F297A HuAChE
  Kd: 1000 ± 350 nM
F295A/F297A HuAChE; read-out: Kd, Michaelis complex (Eq. 1)
  Kd: 280 ± 80 nM
W86A HuAChE; read-out: Kd, Michaelis complex (Eq. 1), W86A HuAChE
  Kd: 280000 ± 28500 nM
Y337A HuAChE; read-out: Kd, Michaelis complex (Eq. 1), Y337A HuAChE
  Kd: 15000 ± 1600 nM
F295A HuAChE; read-out: Kd, Michaelis complex (Eq. 1), F295A HuAChE
  Kd: 90 ± 25 nM
F338A HuAChE; read-out: Kd, Michaelis complex (Eq. 1), F338A HuAChE
  Kd: 700 ± 100 nM
